Assay results taken from ChEMBL document CHEMBL4420076, “Amylin and calcitonin receptor agonist” (2017).
Numbered stars: 1 amine (or outer) side, 2 acyl side, 3 side chain; on linkers, the order of the positions; unused ones are H or OH. Peptide text beside a SMILES is read from it. * marks the point of attachment. C20 diacid = O=C(O)CCCCCCCCCCCCCCCCCCC(=O)*; γGlu = O=C(O)[C@H](CCC(=O)[*:2])N[*:1]

What was measured:
Rattus norvegicus [1] = experiment: Reduction in food intake in Sprague-Dawley rat at 3 nmol/kg measured 24 to 48 hrs post dose relative to control; type: functional; parameters: scale not given: the % may be the effect or the level left
[2] = biological target: T1, Amylin receptor AMY3; CALCR/RAMP3 (Homo sapiens, UniProt O60896+P30988); experiment: Agonist activity at human amylin receptor expressed in BHK570 cells co-expressing RAMP3 assessed as increase in intracellular cAMP concentration incubated for 3 hrs in absence of albumin by CRE luciferase reporter gene assay; type: functional, cell-based
T1 sequence (P30988 whole entry): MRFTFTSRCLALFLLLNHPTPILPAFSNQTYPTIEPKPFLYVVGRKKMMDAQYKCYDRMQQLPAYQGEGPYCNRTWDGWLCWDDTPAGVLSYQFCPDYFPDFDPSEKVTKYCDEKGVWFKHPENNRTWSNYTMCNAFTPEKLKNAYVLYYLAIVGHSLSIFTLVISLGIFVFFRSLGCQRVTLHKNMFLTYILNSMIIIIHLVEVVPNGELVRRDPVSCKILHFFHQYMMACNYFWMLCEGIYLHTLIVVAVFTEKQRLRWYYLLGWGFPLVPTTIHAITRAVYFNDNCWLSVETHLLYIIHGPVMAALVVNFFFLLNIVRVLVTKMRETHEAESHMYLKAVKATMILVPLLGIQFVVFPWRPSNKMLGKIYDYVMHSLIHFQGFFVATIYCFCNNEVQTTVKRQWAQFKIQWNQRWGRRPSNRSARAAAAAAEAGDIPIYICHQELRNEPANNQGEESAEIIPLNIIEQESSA
T1 sequence (O60896 whole entry): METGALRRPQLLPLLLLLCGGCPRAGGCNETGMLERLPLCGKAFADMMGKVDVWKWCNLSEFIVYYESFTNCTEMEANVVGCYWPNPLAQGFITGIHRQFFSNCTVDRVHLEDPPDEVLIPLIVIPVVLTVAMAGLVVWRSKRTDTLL

Calcitonin receptor [3] = biological target: T2, Calcitonin receptor (Homo sapiens, UniProt P30988); experiment: Agonist activity at human calcitonin receptor expressed in BHK570 cells assessed as increase in intracellular cAMP concentration incubated for 3 hrs in absence of albumin by CRE luciferase reporter gene assay; type: functional, cell-based
T2 sequence (P30988 whole entry): T1 sequence (P30988 whole entry)

[4] = biological target: T1, Amylin receptor AMY3; CALCR/RAMP3; experiment: Agonist activity at human amylin receptor expressed in BHK570 cells co-expressing RAMP3 assessed as increase in intracellular cAMP concentration incubated for 3 hrs in presence of 10% FBS by CRE luciferase reporter gene assay; type: functional, cell-based
Calcitonin receptor [5] = biological target: T2, Calcitonin receptor; experiment: Agonist activity at human calcitonin receptor expressed in BHK570 cells assessed as increase in intracellular cAMP concentration incubated for 3 hrs in presence of 10% FBS by CRE luciferase reporter gene assay; type: functional, cell-based
[6] = Stability in pH 7.5 buffer assessed as lag time for fibril formation at 1 uM by Thioflavin T based fluorescence assay; type: physicochemical; conditions: pH 7.5, 1 µM
[7] = Stability in pH 7.5 buffer assessed as compound recovery at 1 uM by Thioflavin T based fluorescence assay; type: physicochemical; conditions: read-out: Drug recovery
[8] = Solubility in 100 mM glycylglycine buffer at pH 3.0 incubated for 18 hrs by UPLC analysis; type: physicochemical
[9] = Solubility in 100 mM glycylglycine buffer at pH 4.0 incubated for 18 hrs by UPLC analysis; type: physicochemical
[10] = Solubility in 100 mM bistrispropane buffer at pH 6.0 incubated for 18 hrs by UPLC analysis; type: physicochemical
[11] = Solubility in 100 mM glycylglycine buffer at pH 5.0 incubated for 18 hrs by UPLC analysis; type: physicochemical
[12] = Solubility in 100 mM bistrispropane buffer at pH 6.5 incubated for 18 hrs by UPLC analysis; type: physicochemical
[13] = Solubility in 100 mM bistrispropane buffer at pH 7.0 incubated for 18 hrs by UPLC analysis; type: physicochemical
[14] = Solubility in 100 mM bistrispropane buffer at pH 7.5 incubated for 18 hrs by UPLC analysis; type: physicochemical
[15] = Solubility in 100 mM bistrispropane buffer at pH 8.0 incubated for 18 hrs by UPLC analysis; type: physicochemical
[16] = biological target: T1, Amylin receptor AMY3; CALCR/RAMP3; experiment: Displacement of [125I]-labeled rat amylin from human amylin receptor expressed in BHK tkts13 whole cells co-expressing RAMP3 incubated for 60 mins by scintillation proximity assay; type: cell-based
Rattus norvegicus [17] = experiment: Reduction in food intake in Sprague-Dawley rat at 3 nmol/kg measured 0 to 24 hrs post dose relative to control; type: functional; parameters: scale not given: the % may be the effect or the level left

Row | EC50 [2] [nM] | EC50 (Calcitonin receptor [3]) [nM] | EC50 [4] [nM] | EC50 (Calcitonin receptor [5]) [nM] | Time [6] [h] | remaining at 1 µM [7] [%] | solubility at 18 h [8] [µM] | solubility at 18 h [9] [µM] | solubility at 18 h [10] [µM] | solubility at 18 h [11] [µM] | solubility at 18 h [12] [µM] | solubility at 18 h [13] [µM] | solubility at 18 h [14] [µM] | solubility at 18 h [15] [µM] | IC50 [16] [nM] | Compound | Activity (Rattus norvegicus [1]) [%] | Activity (Rattus norvegicus [17]) [%]
1 | 0.057 | 0.065 | 0.105 | 0.054 | 0 | 23 | ≥ 200 | – | – | – | – | – | – | – | – | CC(C)C[C@H](NC(=O)CNC(=O)[C@H](CO)NC(=O)[C@H](C)NC(=O)CC[C@H](NC(=O)CCCCCCCCCCCCCCCCCCC(=O)O)C(=O)O)C(=O)N[C@@H](CO)C(=O)N[C@H](C(=O)N[C@@H](C)C(=O)N[C@H](C(=O)N[C@@H](CC(C)C)C(=O)NCC(=O)N[C@@H](CCCNC(=N)N)C(=O)N[C@@H](CC(C)C)C(=O)N[C@@H](CO)C(=O)N[C@@H](CCC(N)=O)C(=O)N[C@@H](CCC(=O)O)C(=O)N[C@@H](CC(C)C)C(=O)N[C@@H](Cc1cnc[nH]1)C(=O)N[C@@H](CCC(=O)O)C(=O)N[C@@H](CC(C)C)C(=O)N[C@@H](CCC(N)=O)C(=O)N[C@H](C(=O)N[C@@H](Cc1ccc(O)cc1)C(=O)N1CCC[C@H]1C(=O)N[C@@H](CCCNC(=N)N)C(=O)N[C@H](C(=O)N[C@@H](CCC(=O)O)C(=O)N[C@H](C(=O)NCC(=O)N[C@@H](CO)C(=O)NCC(=O)N[C@H](C(=O)N[C@@H](Cc1ccc(O)cc1)C(N)=O)[C@@H](C)O)[C@@H](C)O)[C@@H](C)O)[C@@H](C)O)C(C)C)[C@@H](C)O | 15 | –
2 | 0.051 | 0.037 | 0.093 | 0.073 | 0 | 100 | ≥ 200 | ≥ 200 | ≥ 200 | ≥ 200 | ≥ 200 | ≥ 200 | ≥ 200 | ≥ 200 | 0.588 | CC(C)C[C@H](NC(=O)[C@H](C)NC(=O)[C@H](C)NC(=O)[C@@H](NC(=O)[C@H](CO)NC(=O)[C@H](CC(C)C)NC(=O)[C@H](CCC(=O)O)NC(=O)[C@H](CO)NC(=O)[C@H](C)NC(=O)CC[C@H](NC(=O)CCCCCCCCCCCCCCCCCCC(=O)O)C(=O)O)[C@@H](C)O)C(=O)NCC(=O)N[C@@H](CCCCN)C(=O)N[C@@H](CC(C)C)C(=O)N[C@@H](CO)C(=O)N[C@@H](C)C(=O)N[C@@H](CCC(=O)O)C(=O)N[C@@H](CC(C)C)C(=O)N[C@@H](Cc1cnc[nH]1)C(=O)N[C@@H](CCC(=O)O)C(=O)N[C@@H](CC(C)C)C(=O)N[C@@H](C)C(=O)N[C@H](C(=O)N[C@@H](Cc1ccc(O)cc1)C(=O)N1CCC[C@H]1C(=O)N[C@@H](CCCCN)C(=O)N[C@H](C(=O)N[C@@H](CCC(=O)O)C(=O)N[C@H](C(=O)NCC(=O)N[C@@H](CO)C(=O)NCC(=O)N[C@@H](CO)C(=O)N[C@@H](Cc1ccc(O)cc1)C(N)=O)[C@@H](C)O)[C@@H](C)O)[C@@H](C)O ({C20 diacid-γGlu}-ASELSTAALGKLSAELHELATYPKTETGSGSY-NH2) | – | –
3 | 0.05 | 0.04 | 0.094 | 0.073 | > 45 | 100 | ≥ 200 | ≥ 200 | ≥ 200 | – | ≥ 200 | ≥ 200 | ≥ 200 | ≥ 200 | 1.36 | CC(C)C[C@H](NC(=O)[C@H](C)NC(=O)[C@H](C)NC(=O)[C@@H](NC(=O)[C@H](CO)NC(=O)[C@H](CC(C)C)NC(=O)[C@H](CCC(=O)O)NC(=O)[C@H](CO)NC(=O)[C@H](C)NC(=O)CC[C@H](NC(=O)CCCCCCCCCCCCCCCCCCC(=O)O)C(=O)O)[C@@H](C)O)C(=O)NCC(=O)N[C@@H](CCCNC(=N)N)C(=O)N[C@@H](CC(C)C)C(=O)N[C@@H](CO)C(=O)N[C@@H](C)C(=O)N[C@@H](CCC(=O)O)C(=O)N[C@@H](CC(C)C)C(=O)N[C@@H](Cc1cnc[nH]1)C(=O)N[C@@H](CCC(=O)O)C(=O)N[C@@H](CC(C)C)C(=O)N[C@@H](C)C(=O)N[C@H](C(=O)N[C@@H](CC(C)C)C(=O)N1CCC[C@H]1C(=O)N[C@@H](CCCNC(=N)N)C(=O)N[C@H](C(=O)N[C@@H](CCC(=O)O)C(=O)N[C@H](C(=O)NCC(=O)N[C@@H](CO)C(=O)NCC(=O)N[C@@H](CO)C(=O)N[C@@H](Cc1ccccc1)C(N)=O)[C@@H](C)O)[C@@H](C)O)[C@@H](C)O ({C20 diacid-γGlu}-ASELSTAALGRLSAELHELATLPRTETGSGSF-NH2) | – | –
4 | 0.142 | 0.066 | 0.435 | 0.239 | > 45 | 100 | ≥ 200 | ≥ 200 | ≥ 200 | ≥ 200 | ≥ 200 | ≥ 200 | ≥ 200 | ≥ 200 | 4.36 | CC(C)C[C@H](NC(=O)[C@H](C)NC(=O)[C@H](C)NC(=O)[C@@H](NC(=O)[C@H](CO)NC(=O)[C@H](CC(C)C)NC(=O)[C@H](CCC(=O)O)NC(=O)[C@H](CO)NC(=O)[C@H](C)NC(=O)CC[C@H](NC(=O)CCCCCCCCCCCCCCCCCCC(=O)O)C(=O)O)[C@@H](C)O)C(=O)NCC(=O)N[C@@H](CCCNC(=N)N)C(=O)N[C@@H](CC(C)C)C(=O)N[C@@H](CO)C(=O)N[C@@H](C)C(=O)N[C@@H](CCC(=O)O)C(=O)N[C@@H](CC(C)C)C(=O)N[C@@H](Cc1cnc[nH]1)C(=O)N[C@@H](CCC(=O)O)C(=O)N[C@@H](CC(C)C)C(=O)N[C@@H](C)C(=O)N[C@H](C(=O)N[C@@H](CC(C)C)C(=O)N1CCC[C@H]1C(=O)N[C@@H](CCCNC(=N)N)C(=O)N[C@H](C(=O)N[C@@H](CCC(=O)O)C(=O)N[C@H](C(=O)NCC(=O)N[C@@H](CO)C(=O)NCC(=O)N[C@@H](CO)C(=O)NCC(N)=O)[C@@H](C)O)[C@@H](C)O)[C@@H](C)O ({C20 diacid-γGlu}-ASELSTAALGRLSAELHELATLPRTETGSGSG-NH2) | – | –
5 | 0.031 | – | 0.14 | 0.073 | > 45 | 100 | ≥ 200 | – | ≥ 200 | – | ≥ 200 | ≥ 200 | ≥ 200 | ≥ 200 | – | CC(C)C[C@H](NC(=O)CC[C@H](NC(=O)CCCCCCCCCCCCCCCCCCC(=O)O)C(=O)O)C(=O)N[C@@H](CO)C(=O)NCC(=O)N[C@@H](CC(C)C)C(=O)N[C@@H](CO)C(=O)N[C@H](C(=O)N[C@@H](C)C(=O)N[C@H](C(=O)N[C@@H](CC(C)C)C(=O)NCC(=O)N[C@@H](CCCNC(=N)N)C(=O)N[C@@H](CC(C)C)C(=O)N[C@@H](CO)C(=O)N[C@@H](CCC(N)=O)C(=O)N[C@@H](CCC(=O)O)C(=O)N[C@@H](CC(C)C)C(=O)N[C@@H](Cc1cnc[nH]1)C(=O)N[C@@H](CCC(=O)O)C(=O)N[C@@H](CC(C)C)C(=O)N[C@@H](CCC(N)=O)C(=O)N[C@H](C(=O)N[C@@H](Cc1ccc(O)cc1)C(=O)N1CCC[C@H]1C(=O)N[C@@H](CCCNC(=N)N)C(=O)N[C@H](C(=O)N[C@@H](CCC(=O)O)C(=O)N[C@H](C(=O)NCC(=O)N[C@@H](CO)C(=O)N[C@@H](CCC(N)=O)C(=O)N[C@H](C(=O)N[C@@H](Cc1ccc(O)cc1)C(N)=O)[C@@H](C)O)[C@@H](C)O)[C@@H](C)O)[C@@H](C)O)C(C)C)[C@@H](C)O ({C20 diacid-γGlu}-LSGLSTAVLGRLSQELHELQTYPRTETGSQTY-NH2) | 21 | 36
